Assay [1] addresses T1, Estrogen receptor beta (Homo sapiens, UniProt Q92731). The experiment in a line: Antagonist effect on transcriptional activation in HEC-1 cells expressing Estrogen receptor beta at 10e-6 M against 10e-9 M estradiol. The assay is classed as functional, cell-based.
Assay [2] deals with T1, Estrogen receptor beta.
The target of the next assay is T2, Estrogen receptor (Homo sapiens, UniProt P03372).
T2 sequence (P03372 whole entry): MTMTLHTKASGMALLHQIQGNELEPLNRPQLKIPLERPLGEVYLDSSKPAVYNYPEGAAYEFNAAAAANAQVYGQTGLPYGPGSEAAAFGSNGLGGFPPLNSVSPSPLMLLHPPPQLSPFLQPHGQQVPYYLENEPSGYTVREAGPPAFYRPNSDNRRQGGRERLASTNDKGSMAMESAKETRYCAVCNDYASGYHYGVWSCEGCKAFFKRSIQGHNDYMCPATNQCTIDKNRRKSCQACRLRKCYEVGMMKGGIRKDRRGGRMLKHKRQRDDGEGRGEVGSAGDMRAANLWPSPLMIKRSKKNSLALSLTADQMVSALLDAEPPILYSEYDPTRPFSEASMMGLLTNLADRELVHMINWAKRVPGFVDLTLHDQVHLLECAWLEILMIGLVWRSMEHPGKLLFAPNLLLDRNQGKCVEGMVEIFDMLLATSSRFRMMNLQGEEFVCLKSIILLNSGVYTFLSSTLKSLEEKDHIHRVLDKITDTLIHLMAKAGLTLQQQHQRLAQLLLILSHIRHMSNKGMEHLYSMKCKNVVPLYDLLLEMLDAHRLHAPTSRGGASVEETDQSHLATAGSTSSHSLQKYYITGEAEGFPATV

Assay [3] has as its target T1, Estrogen receptor beta. In words: Agonist effect on transcriptional activation in HEC-1 cells expressing Estrogen receptor beta at 10e-8 M. The assay is classed as functional, cell-based.

pKi: −log10 of the molar value. Values joined by “and” are separate entries in the source; they are usually repeats but may differ in a detail not shown here. Identical values can stand only once.

As usually defined, the pKi is −log10 of the Ki, conventionally taken in molar units. A higher pKi goes with a small Ki.

T1 sequence (Q92731 whole entry): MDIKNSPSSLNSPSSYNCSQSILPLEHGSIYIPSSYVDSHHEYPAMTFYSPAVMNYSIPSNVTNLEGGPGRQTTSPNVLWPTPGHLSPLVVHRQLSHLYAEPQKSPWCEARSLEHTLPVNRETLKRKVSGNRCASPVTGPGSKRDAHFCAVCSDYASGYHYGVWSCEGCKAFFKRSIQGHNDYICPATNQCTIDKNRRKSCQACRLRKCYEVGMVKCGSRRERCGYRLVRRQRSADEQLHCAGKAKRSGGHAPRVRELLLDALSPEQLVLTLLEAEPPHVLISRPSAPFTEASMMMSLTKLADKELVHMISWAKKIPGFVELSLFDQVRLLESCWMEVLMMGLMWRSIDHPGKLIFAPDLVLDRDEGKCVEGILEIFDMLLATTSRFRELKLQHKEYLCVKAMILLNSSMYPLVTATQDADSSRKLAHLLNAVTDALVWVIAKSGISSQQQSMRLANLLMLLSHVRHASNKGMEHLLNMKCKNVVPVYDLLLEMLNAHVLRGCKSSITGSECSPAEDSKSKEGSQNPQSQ

Take `O/N=C/c1ccc(-c2ccccc2)c(-c2ccccc2)c1O`: the Efficacy is 53% on Estrogen receptor beta [1]; 2.6% and 24% on Estrogen receptor beta [3]. Besides, the pKi at Estrogen receptor beta [2] was 8.77; at Estrogen receptor, 8.96.

On to `Nc1c(/C=N/O)ccc(-c2ccccc2)c1-c1ccccc1`, for which the Efficacy at Estrogen receptor beta [1] was 31%; at Estrogen receptor beta [3], 6% and 23%. In addition, the negative logarithm of the Ki (pKi) at Estrogen receptor beta [2] was 8.55; on Estrogen receptor, 8.66.

For `CCNc1c(/C=N/O)ccc(-c2ccccc2)c1-c1ccccc1`, the Efficacy at Estrogen receptor beta [1] was 85%; on Estrogen receptor beta [3], 0.94% and 4.9%. Besides, the pKi is 10.32 at Estrogen receptor beta [2] and 9.33 at Estrogen receptor.

Take `CNc1c(/C=N/O)ccc(-c2ccccc2)c1-c1ccccc1`: the Efficacy on Estrogen receptor beta [1] is 71%; at Estrogen receptor beta [3], 1.1% and 22%. The pKi on Estrogen receptor beta [2] was 8.28; on Estrogen receptor it was 8.43.

In the case of `O/N=C/c1ccc(-c2ccccc2)c(-c2ccccc2)c1`, the Efficacy on Estrogen receptor beta [1] is 69%; at Estrogen receptor beta [3], 1.3% and 20%. Further, the pKi on Estrogen receptor beta [2] is 9.57; at Estrogen receptor, 9.82.

The values above are taken from ChEMBL document CHEMBL1145083, “Novel estrogen receptor ligands based on an anthranylaldoxime structure: role of the phenol-type pseudocycle in the binding process” (J Med Chem, 2003).
